Assay results published in US20240158797A1, “ANTISENSE OLIGONUCLEOTIDES FOR THEIR USE IN AN ANTI-CANCER TREATMENT” (UNIVERSITÉ GRENOBLE ALPES, priority 2021, published 2024).

Experiments:
huntingtin (HTT) protein = test: Test of the expression level of the HTT protein in T98G cells transfected with ASO RG6042, PH1, PH2, PH3 or Scr; assay type: cell-based; conditions: T98G glioma cells, 100 μM ASO in lipofectamine 48 h; western blot vs ASO Scr, at least four repetitions
Experimental: (§1) The U87, T98G and U251 glioma cell lines are cultured in DMEM medium («Dulbecco/Vogt modified Eagle's minimal essential medium» supplemented with 10% fetal calf serum and 1% penicillin and streptomycin.
(§2) When the cultures are at 60% confluence, they are transfected with 100 μM of antisense oligonucleotide (ASO) RG6042 (of sequence SEQ ID NO: 1), or PH1 (SEQ ID NO: 2) or PH2 (SEQ ID NO: 3) or PH3 (SEQ ID NO: 4) or Scr in lipofectamine for 48 h. The ASO Scr (for «scramble» is an ASO serving as a control whose sequence SEQ ID NO: 5 is <A*CATG*>A*C*C*G*C*A*C*T*C*A*<CTAT*A> where * is a phosphorothioate bond and the bases between the signs < and > are 2′-O-methoxyethyl RNA.
The cells are rinsed with phosphate-buffered saline (PBS) and then lysed in RIPA-type lysis buffer supplemented with protease and phosphatase inhibitors. The proteins solubilized in the buffer are harvested after centrifugation, denatured in Laemmli loading buffer and deposited on polyacrylamide gel. After migration, the proteins are transferred onto a polyvinylidine difluoride (PVDF) membrane. […] The vinculin is used as a load control.
(§3) T98G cells transfected with ASO RG6042, or ASO PH1, or ASO PH2 or ASO PH3, or ASO Scr, are harvested for testing the expression level of HTT proteins and MGMT.
(§4) The protocol is the same as for the previously cited tests for the expression level of the HTT protein and the expression level of the MGMT protein. The vinculin is also used here as a load control.
FIG. 5 illustrates the result of the western blot produced from cells of the T98G cell line having been transfected with ASO RG6042, with ASO PH1, with ASO PH2, with ASO PH3, or with ASO Scr.
(§5) FIG. 6 illustrates the quantification of the protein levels of HTT in A and of MGMT in B, obtained by western blot after at least four repetitions of the experiment presented in FIG. 5. The statistics were carried out using the Kruskal-wallis test followed by Dunn's multiple comparison test, error bars, SEM, *p<0.05, **p<0.001.

[1] = system: 6-O-methylguanine DNA methyltransferase (MGMT) protein; test: Test of the expression level of the MGMT protein (western blot) in T98G cells; assay type: cell-based; conditions: for levels of MGMT protein: T98G glioma cells, 100 μM ASO in lipofectamine 48 h, western blot vs ASO Scr, at least four repetitions
Experimental: as §1, §2
Cells transfected with ASO RG6042, ASO Scr, or treated with lipofectamine alone (for control), are harvested for the test of the expression level of the MGMT protein.
The protocol is the same as for the previously cited test of the expression level of the HTT protein with the only change being the use of anti-MGMT antibodies (#2739, from the Cell signaling Technology® brand) in incubation to reveal the MGMT protein. The vinculin is also used here as a load control.
(§6) FIG. 4 illustrates in A the result of the western blot produced from cells of the T98G cell line having been transfected with ASO RG6042, with ASO Scr or treated with lipofectamine alone (Ctrl) and, in B, the quantification of MGMT protein levels obtained by western blot after at least 4 repetitions of the experiment presented in A.
as §3, §4, §5

T98G cell line [2] = test: Temozolomide (TMZ) sensitivity test (MTT), T98G line; assay type: cell-based; conditions: T98G cultures, RG6042 vs control
Experimental: as §1
as §2, with “RNA. […]” for “RNA.”
(§7) The yellow probe of MTT, 3-(4,5-Dimethyl-2-thiazolyl)-2,5-diphenyl-2H-tetrazolium bromide, is then added at a working concentration of 0.5 mg·ml^−1 to each well. […] The optical density (OD) of the contents of each well is then analyzed with a spectrophotometer at wavelengths comprised between 490 nm and 570 nm. […]
(§8) FIG. 10 illustrates in A a curve showing the percentage of living cells of the T98G line transfected with ASO RG6042 or treated with lipofectamine alone (Ctrl) as a function of the received dose of TMZ and, in B, the average TMZ concentrations measured at the LD50 in 6 different MTT tests for cells of the T98G line transfected with ASO RG6042 or treated with lipofectamine alone (Ctrl).

U251 cell line [3] = test: Sensitivity test to the alkylating agent Lomustine (MTT), U251 line; assay type: cell-based
Experimental: as §1, §2
(§9) The cells transfected with ASO RG6042 or ASO Scr are harvested for the sensitivity test to the alkylating agent Lomustine.
(§10) The Lomustine was prepared in the form of a stock solution of 50 mg/ml (214 mM) in pure ethanol. The solution was filtered to sterilize it (0.2 μm pore filter) and frozen at −20° C. until further use. […]
FIG. 11 illustrates in A a curve showing the percentage of living cells of the U251 line transfected with ASO RG6042 or Scr as a function of the dose of Lomustine received and, in B, the mean of the concentrations of Lomustine measured at the LD50 in 4 different MTT assays for U251 cell line transfected with ASO RG6042 or Scr.

T98G cell line [4] = test: Sensitivity test to the alkylating agent Lomustine (MTT), T98G line; assay type: cell-based
Experimental: as §1, §2, §9, §10
FIG. 12 illustrates in A a curve showing the percentage of live cells of the T98G line transfected with ASO RG6042 or Scr as a function of the received dose of Lomustine and, in B, the mean of the concentrations of Lomustine measured at the LD50 in 4 different MTT assays for T98G cell line transfected with ASO RG6042 or Scr.

huntingtin protein (HTT) = test: Huntingtin (HTT) protein expression level test (western blot) in transfected glioma cells; assay type: cell-based; conditions: glioma cells (U251, U87, T98G) transfected with 100 μM ASO in lipofectamine for 48 h; western blot vs ASO Scr / lipofectamine alone
Experimental: as §1
as §2, with “RNA. […]” for “RNA.”
FIG. 1 illustrates in A the results of the western blot carried out from cells of the U251 cell line having been transfected with ASO RG6042, with the ASO Scr or simply treated with lipofectamine alone (Ctrl for control), and, in B, the quantification of HTT protein levels obtained by western blot after 4 repetitions of the experiment presented in A.
as §6, with “FIG. 2” for “FIG. 4”, “the U87” for “the T98G”, “alone (Ctrl),” for “alone (Ctrl)”, “of HTT” for “of MGMT”, “least 3” for “least 4”, “A. […]” for “A.”

HTT = conditions: patients with Huntington's disease, after 4 intrathecal injections (Tabrizi et al. 2019); cited from earlier work
U251 cell line [5] = test: Temozolomide (TMZ) sensitivity test (MTT), U251 line; assay type: cell-based; conditions: U251 cultures, RG6042 vs control
Experimental: as §1
as §2, with “RNA. […]” for “RNA.”
as §7
as §8, with “FIG. 8” for “FIG. 10”, “of live” for “of living”, “the […]” for “the T98G”, “in 4” for “in 6”

U87 cell line = test: Temozolomide (TMZ) sensitivity test (MTT), U87 line; assay type: cell-based; conditions: U87 cultures, RG6042 vs control
Experimental: as §1
as §2, with “RNA. […]” for “RNA.”
as §7
FIG. 9 illustrates in A a curve showing the percentage of living cells of the U87 line transfected with ASO RG6042 or treated with lipofectamine alone (Ctrl) as a function of the received dose of TMZ and, in B, the averages TMZ concentrations measured at the LD50 in 4 different MTT tests for cells of the […] line transfected with ASO RG6042 or treated with lipofectamine alone (Ctrl).

Substance | levels of HTT protein (huntingtin (HTT) protein) | levels of MGMT protein [1] | reduction in the LD50 at the TMZ (T98G cell line [2]) [%] | sensitization to the alkylating agent Lomustine (U251 cell line [3]; U251 cells) | reduction in the LD50 of Lomustine (U251 cell line [3]; U251 cultures, RG6042 vs Scr) [%] | MGMT levels ([1]; T98G cells transfected with 100 μM ASO in lipofectamine for 48 h, western blot vs ASO Scr / lipofectamine alone) | sensitization to the alkylating agent Lomustine (T98G cell line [4]; T98G cells) | reduction in the LD50 of Lomustine (T98G cell line [4]; T98G cultures, RG6042 vs Scr) [%] | HTT protein levels (huntingtin protein (HTT)) | HTT levels in the cerebrospinal fluid (HTT) | reduction in the LD50 at the TMZ (U251 cell line [5]) [%] | reduction in the LD50 at the TMZ (U87 cell line) [%]
ASO PH1: antisense oligonucleotide of sequence SEQ ID NO: 2 reducing HTT and MGMT levels (antisense TCTCTATTGCACATTCCAAG; listed as DNA, chemistry not given here) | significantly reduce | significantly reduce | – | – | – | – | – | – | – | – | – | –
ASO PH2: antisense oligonucleotide of sequence SEQ ID NO: 3 reducing HTT and MGMT levels (antisense CTCGACTAAAGCAGGATTTC; listed as DNA, chemistry not given here) | significantly reduce | significantly reduce | – | – | – | – | – | – | – | – | – | –
ASO PH3: antisense oligonucleotide of sequence SEQ ID NO: 4 reducing HTT and MGMT levels (antisense CCTGCATCAGCTTTATTTGT; listed as DNA, chemistry not given here) | significantly reduce | significantly reduce | – | – | – | – | – | – | – | – | – | –
ASO RG6042: antisense oligonucleotide of sequence SEQ ID NO: 1 targeting huntingtin mRNA; sequence from literature, clinical trials in Huntington's disease (antisense CTCAGTAACATTGACACCAC; listed as DNA, chemistry not given here) | significantly reduce | significantly reduce | 45 | sensitizes | 41 | significantly reduces | sensitizes | 47 | significantly reduces | decreased | 40 | 32
